Measured values: patent publication US10561666B2, “Amido compounds as RORγt modulators and uses thereof” (New York University, priority 2010, dated 2020)

Tests used:
mouse Th17 polarization = experiment: Mouse Th17 polarization assay (IL-17a producing cells); assay type: cell-based; conditions: for IC50: naive mouse CD4 T cells, TGFβ and IL6, compounds added Day 1, analyzed Day 4, IL-17a producing cells, read-out: Th 17 IC50; for mouse Th17 cell differentiation, as measured by IL17a production: 20 μM, compared to DMSO treated cells, FACS (FIG. 3)
Protocol: Effects of compound derivatives at various concentrations on mouse Th17 polarization. Percentage of DMSO treated IL-17a producing cells was set at 100. Naive mouse CD4 T cells (CD25^−, CD62L^+, and CD44^int-high) were sorted and cultured with CD3/CD28 stimulatory antibodies in the presence of TGFβ (0.1 ng/ml) and IL6 (20 ng/ml). Compounds were added on Day 1 and cells were analyzed on Day 4. For intracellular cytokine staining, cells were incubated for 5 h with phorbol ester (50 ng/ml; Sigma), ionomycin (500 ng/ml; Sigma) and GolgiStop (BD). When needed, surfaces were stained by incubation for 15 min on ice with PECy7-conjugated CD4 (BD Biosciences). The Cytofix/Cytoperm buffer set (BD) was used for intracellular staining. Cells were fixed and made permeable for 30 min on ice and were stained for 30 min on ice in permeabilization buffer with Alexa647-conjugated anti-IL17 (eBioscience) and PE-conjugated anti-IFNg (eBioscience). An LSR II (BD Biosciences) and FlowJo software (Tree Star) were used for flow cytometry. RORg IC50 value acquired from the S2 cell reporter assay is listed for comparison.
(§1) Naive CD4 T cells (CD25^−, CD62L^+, and CD44^int-high) were sorted and cultured with CD3/CD28 stimulatory antibodies in the presence of TGFβ (0.1 ng/ml) and IL6 (20 ng/ml). Compounds were added on Day 1 and cells were analyzed on Day 4. For intracellular cytokine staining, cells were incubated for 5 h with phorbol ester (50 ng/ml; Sigma), ionomycin (500 ng/ml; Sigma) and GolgiStop (BD). When needed, surfaces were stained by incubation for 15 min on ice with PECy7-conjugated CD4 (BD Biosciences). The Cytofix/Cytoperm buffer set (BD) or FoxP3 staining kit (eBioscience) were used for intracellular staining. Cells were fixed and made permeable for 30 min on ice and were stained for 30 min on ice in permeabilization buffer with Alexa647-conjugated anti-IL17 (eBioscience), PE-conjugated anti-IFNg (eBioscience), and/or PE-conjugated anti-FoxP3 (eBioscience). An LSR II (BD Biosciences) and FlowJo software (Tree Star) were used for flow cytometry.

RORγt = RORγt (Mus musculus, UniProt P51450, T352K); experiment: RORγt S2 cell Gal4-luciferase reporter assay; conditions: for Emax: read-out: Efficacy (%)
Description: Methods: The Drosophila S2 cell line was originally purchased from Invitrogen and was maintained in Schneider's medium supplemented with 10% heat-inactivated bovine fetal calf serum and antibiotics (Invitrogen). […] The resulting chimeric gene was subcloned into the copper inducible pMT/V5-His A vector (available from Invitrogen).
In order to generate stable cell lines, cells were co-transfected with pMT-G4DBD-RORγt, pMT-G4DBD-RORα, pMT-G4DBD-DHR3, or pMT-G4DBDVP16 and pHygro plasmids (Invitrogen) and screened for resistant colonies in the presence of hygromycin (0.3 mg/mL).
Methods: 600 G4DBD-RORγ/γt-luc reporter (#25) or G4DBD-VP16-luc reporter cells were distributed into each well of 1,536-well white bottom plates in 4 μl S2 cell culture volume containing hygromicin (300 μg/ml) and puromycin (2 μg/ml). […] After one-hour incubation, 1 μl of culture medium solution containing copper sulfate (to final 0.7 mM) and 10 μM RORγ/γt antagonists were added to each well. After 20-hour incubation at ambient temperature, 1.5 μl firefly luciferase detection mix was added and the luciferase activities were measured in 10 min. ViewLux luminometers were used for measuring luciferase signal.
Since their cognate DNA binding sites were not well characterized, the DNA binding domains (DBD) of RORγ/γt, RORα (mouse homolog for POPγ), and DHR3 (Drosophila orthologue for ROR family proteins) were replaced with the heterologous yeast GAL4 DBD. The transcriptionally active domain of general transcriptional activator VP16 was also fused with GAL4 DBD. The GAL4 fusion constructs were placed under the control of a copper inducible promoter, and stable S2 cell lines with genomic integration of these four reporter constructs were generated. The copper inducible promoter ensures tight regulation of GAL4-fusion protein expression and it allows small molecules to get into the cells prior to protein induction, thus increasing their effects on GAL4 reporters. The stable reporter cell lines also encode the firefly luciferase reporter, whose expression is regulated by five copies of the GAL4 binding site enhancer (UAS), along with the pol III-driven Renilla luciferase reporter.
A cell-based reporter assay was used to detect RORγt-mediated activity. This assay, called RORγt□ employed Drosophila Schneider cells that were stably transfected with two vectors: a gene expressing a fusion of the Gal4 DNA binding domain and RORγt transactivation domain under the control of the metallothionine promoter and a Photinus luciferase reporter regulated by the Gal4 binding site enhancer, UAS. […] Cells (600/well) were dispensed into white solid 1536-well plates (Greiner) using a solenoid-based dispenser. Following transfer of 23 nL compound or DMSO vehicle by a pin tool, the plates were incubated 1 hr at ambient temperature, and 1 uL/well copper sulfate (700 uM final concentration) was added. The plates were centrifuged 15 s at 1000 RPM and incubated 20 hr at ambient temperature. After addition of 1.5 uL Photinus luciferase detection reagent, the plates were incubated 10 min at ambient temperature and then read by a ViewLux (Perkin Elmer) to detect luminescence. […] Efficacy is expressed as % of the maximal response of control inhibitor (Digoxin), set at 100%.

Th1 differentiation = experiment: Mouse Th1 differentiation counter-screen (IFNγ production); assay type: cell-based; conditions: 20 μM, naive CD4 T cells, IL12 and IL2 (FIG. 4)
Protocol: as §1
For Th1 differentiation, IL12 (10 ng/ml) and IL2 (10 U) was added to naive CD4 T cell cultures instead of TGFβ and IL6.

[1] = target: T1, recombinant human RORγ LBD (Homo sapiens, UniProt P51449); experiment: In vitro competition assay, fluorescence polarization with labeled 25-hydroxycholesterol; assay type: binding; conditions: various concentrations
T1 construct: recombinant human RORγ LBD was loaded with fluorescently-labeled 25-hydroxycholesterol
T1 sequence (P51449 269-508 limits assumed): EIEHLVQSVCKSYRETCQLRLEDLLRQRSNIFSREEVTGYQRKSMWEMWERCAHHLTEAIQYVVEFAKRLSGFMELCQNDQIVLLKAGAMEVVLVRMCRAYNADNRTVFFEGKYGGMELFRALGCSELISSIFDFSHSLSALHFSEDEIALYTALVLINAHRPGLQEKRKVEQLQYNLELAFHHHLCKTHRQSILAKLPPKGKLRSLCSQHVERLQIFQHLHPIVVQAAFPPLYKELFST
Description: The presence of increasing concentrations of NCGC00166547 was correlated with displacement of the fluorescently-labeled 25-hydroxycholesterol from the LBD.

[2] = tested on: Human memory (CD45RO+CD45RA−CD3+CD4+CCR6+CD161+) cells; experiment: Human memory Th17 cell maintenance (IL-17a / IFN-γ staining); assay type: cell-based; conditions: 3 uM, 6 days
Description: Intracellular staining for IFN-γ or IL-17a in memory CD4^+T cells from multiple donors, assessed on day 6. Each symbol (n=11 or 9, respectively) indicates a separate donor.

[3] = tested on: human Th17 cell differentiation; experiment: Human Th17 cell differentiation of naive cord blood T cells; assay type: cell-based; conditions: IL2, IL23, IL1β, TGFβ, six days (FIG. 6B)
Protocol: Flow cytometry of IL-17a and IFN-γ production by cord blood naive CD4^+T cells (CD45RO^−CD45RA^+CD3^+CD4^+CD25^−HLA-DR^−)transduced with RORαd-IRES-GFP or RORγt-IRES-GFP on day 1 and analyzed on day 6. GFP expressing cells were gated for analysis. […] Flow cytometry of IL-17a and IFN-γ production by human naive cord blood T cells (CD45RO^−D45RA^+CD3^+CD4^+CD25^−HLA-DR^−), which were cultured for six days in presence of IL2, IL23 and IL1β, and with various concentrations of TGFβ (ng/ml). DMSO or N2 was added 16 hours after the cytokine addition.
The results depict flow cytometry of IL-17a and IFN-γ production by cord blood naive CD4^+ T cells (CD45RO^−CD45RA^+CD3^+CD4^+CD25^−HLA-DR^−)transduced with human RORαd-IRES-GFP or human RORγt-IRES-GFP on day 1 and analyzed on day 6. GFP expressing cells were gated for analysis. […] The results depict flow cytometry of IL-17a and IFN-γ production by human naive cord blood T cells (CD45RO^−D45RA^+CD3^+CD4^+CD25^−HLA-DR^−), which were cultured for six days in the presence of IL2, IL23 and ILβ, and with various concentrations of TGFβ (ng/mL). […] IL-17a-APC (eBio64CAP17 eBioscience) and IFN-γ-PECy7 (45.B3 eBioscience) were used for analysis.

[4] = IC50(μM), Drosophila S2 cells, Gal4-RORγt luciferase reporter, 20 hr
[5] = S2 cell RORg IC50 μM, S2 cell reporter assay, listed for comparison

Chain of RORγt (P51450 with tags, fused parts or gaps T352K): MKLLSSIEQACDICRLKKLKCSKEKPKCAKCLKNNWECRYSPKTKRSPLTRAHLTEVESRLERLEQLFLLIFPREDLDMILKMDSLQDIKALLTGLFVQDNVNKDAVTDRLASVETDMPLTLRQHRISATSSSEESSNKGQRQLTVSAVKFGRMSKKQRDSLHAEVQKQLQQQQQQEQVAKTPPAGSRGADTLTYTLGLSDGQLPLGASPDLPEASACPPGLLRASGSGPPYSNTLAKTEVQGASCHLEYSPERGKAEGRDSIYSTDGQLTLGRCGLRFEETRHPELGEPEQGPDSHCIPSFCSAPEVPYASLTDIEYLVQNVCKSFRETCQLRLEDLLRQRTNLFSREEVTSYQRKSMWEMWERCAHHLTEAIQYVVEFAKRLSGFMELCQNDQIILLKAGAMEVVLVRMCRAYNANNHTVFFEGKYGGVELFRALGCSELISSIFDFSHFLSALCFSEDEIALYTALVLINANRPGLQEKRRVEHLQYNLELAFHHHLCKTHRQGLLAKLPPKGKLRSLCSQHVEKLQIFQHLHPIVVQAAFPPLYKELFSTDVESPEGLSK

IC50 (RORγt; [4]) [µM] | IC50 (RORγt; [5]) [µM] | Emax (RORγt) [%] | Compound | IC50 (mouse Th17 polarization) [µM] | further results
– | – | – | COc1cc(OC)c(C(CC(=O)N2CCCC(C)C2)c2ccc3c(c2)OCO3)c(OC)c1 (stereo not drawn) [Compound 120, 3-(Benzo[d][1,3]dioxol-5-yl)-1-(3-methylpiperidin-1-yl)-3-(2,4,6-trimethoxyphenyl)propan-1-one] | 1 to 10 | –
1 to 10 | 1 to 10 | 93.5 | COc1cc(O)c(C(CC(=O)N2CCCC(C)C2)c2ccccc2C)c(OC)c1 (stereo not drawn) [Compound 63] | > 20 | –
– | – | – | CC1CC(C)CN(C(=O)CC(c2ccc3c(c2)OCO3)c2c(O)ccc3ccccc23)C1 (stereo not drawn) [Compound 138] | 1 to 10 | –
– | – | – | COc1cc(O)c(C(CC(=O)N2CCCC(C)(C)C2)c2ccc3c(c2)OCO3)c(OC)c1 (stereo not drawn) [Compound 8] | 1 to 10 | –
– | – | – | COc1ccc(C(CC(=O)N2CCCC(C)C2)c2ccc3c(c2)OCO3)c(O)c1 (stereo not drawn) [Compound 115] | > 20 | –
– | – | – | COc1cc(O)c(C(CC(=O)N2CC(C)OC(C)C2)c2ccc3c(c2)OCO3)c(OC)c1 (stereo not drawn) [Compound 41] | < 1 | –
11 to 50 | 11 to 20 | 98.5 | COc1cc(OC)c(C(CC(=O)N2CC(C)CC(C)C2)c2ccc3c(c2)OCO3)c(OCC(N)=O)c1 (stereo not drawn) [Compound 137] | > 20 | –
– | – | – | COc1cccc(O)c1C(CC(=O)N1CCCC(C)C1)c1ccc2c(c1)OCO2 (stereo not drawn) [Compound 121] | > 20 | –
– | – | – | COc1cc(O)c(C(CC(=O)N2CC(C)CC(C)C2)c2ccc(C)cc2)c(OC)c1 (stereo not drawn) [Compound 73] | < 1 | –
– | – | – | COc1cc(O)c(C(CC(=O)N2CCCC(C)C2)c2ccc3c(c2)OCO3)c(OC)c1 (stereo not drawn) [NCGC00166547] | – | Th1 differentiation, as measured by IFNγ production (Th1 differentiation): does not inhibit Th1 differentiation; mouse Th17 cell differentiation, as measured by IL17a production (mouse Th17 polarization): suppress mouse Th17 cell differentiation; binding to human RORγt (displacement of fluorescently-labeled 25-hydroxycholesterol) [1]: directly bind to human RORγt
– | – | – | COc1cc(O)c(C(CC(=O)N2CCCC(C(F)(F)F)C2)c2ccc3c(c2)OCO3)c(OC)c1 (stereo not drawn) [Compound 43] | 1 to 10 | –
– | – | – | COc1cc(O)c(C(CC(=O)N2CCCCC2)c2ccc3c(c2)OCO3)c(OC)c1 (stereo not drawn) [NCGC00166488] | – | mouse Th17 cell differentiation, as measured by IL17a production (mouse Th17 polarization): suppress mouse Th17 cell differentiation
11 to 50 | > 20 | 45.6 | COc1ccc(C(CC(=O)N2CCCC(C)C2)c2c(O)cc(OC)cc2OC)c(OC)c1 (stereo not drawn) [Compound 69] | > 20 | –
– | – | – | COc1ccc(C(CC(=O)N2CC(C)CC(C)C2)c2c(O)cc(OC)cc2OC)cc1 (stereo not drawn) [Compound 74] | < 1 | –
1 to 10 | 1 to 10 | 95.4 | COc1cc(O)c(C(CC(=O)N2CCCC(C)C2)c2ccccc2)c(OC)c1 (stereo not drawn) [Compound 61] | > 20 | –
– | – | – | COc1cc(O)c(C(CC(=O)N2C[C@H](C)C[C@H](C)C2)c2ccc3c(c2)OCO3)c(OC)c1 (stereo partly drawn) [NCGC00238427] | – | IL-17a expression in human memory Th17 cells ([2]; multiple donors, IL-17a+IFN-γ+/−, p=0.02 (FIG. 7)): inhibits human Th17 cell memory cells expression of IL-17a; IL-17a−IFN-γ+ memory CD4+ T cells, with versus without compound ([2]; two-tailed unpaired Student's t test (FIG. 7)): not significant; concentration at which human Th17 cell differentiation is inhibited [3]: ≤ 1 µM
> 50 | > 20 | – | COc1cc(O)c(C(CC(=O)N2CC(C)NC(C)C2)c2ccc3c(c2)OCO3)c(OC)c1 (stereo not drawn) [Compound 42] | > 20 | –
– | – | – | COc1cc(O)c(C(CC(=O)N2CCC(C)CC2)c2ccc3c(c2)OCO3)c(OC)c1 (stereo not drawn) [Compound 1] | > 20 | –
1 to 10 | 1 to 10 | 93.8 | COc1cc(O)c(C(CC(=O)N2CC(C)CC(C)C2)c2ccc(O)cc2)c(OC)c1 (stereo not drawn) [Compound 75] | < 1 | –
1 to 10 | 1 to 10 | 96.5 | COCOc1cc(OC)cc(OC)c1C(CC(=O)N1CC(C)CC(C)C1)c1ccc2c(c1)OCO2 (stereo not drawn) [Compound 135] | 1 to 10 | –
1 to 10 | 1 to 10 | 96.8 | COc1cc(O)c(C(CC(=O)N2CC(C)CC(C)C2)c2ccc(N(C)C)cc2)c(OC)c1 (stereo not drawn) [Compound 72] | < 1 | –
< 1 | 1 to 10 | 95.4 | COc1cc(O)c(C(CC(=O)N2CC(C)CC(C)C2)c2ccc3c(c2)OCCO3)c(OC)c1 (stereo not drawn) [Compound 76] | < 1 | –
1 to 10 | 1 to 10 | 90 | COc1cc(OC)c(C(CC(=O)N2CC(C)CC(C)C2)c2ccc3c(c2)OCO3)c(OCC#N)c1 (stereo not drawn) [Compound 136] | 1 to 10 | –
1 to 10 | 1 to 10 | 96.4 | COc1cc(OC)c(C(CC(=O)N2CC(C)CC(C)C2)c2ccc3c(c2)OCO3)c(OC)c1 (stereo not drawn) [Compound 134] | < 1 | –
1 to 10 | 1 to 10 | 97 | COc1cc(O)c(C(CC(=O)N2CCCC(C)C2)c2ccc(C)cc2)c(OC)c1 (stereo not drawn) [Compound 57] | 1 to 10 | –

Compound | IC50 (RORγt; [4]) [µM] | IC50 (RORγt; [5]) [µM] | Emax (RORγt) [%] | IC50 (mouse Th17 polarization) [µM] | further results
COc1cc(O)c(C(CC(=O)N2CC(C)CC(C)C2)c2ccc3c(c2)OCO3)c(OC)c1 (stereo not drawn) [Compound 22] | – | – | 97.7 | < 1 | –
COc1cc(O)c([C@@H](CC(=O)N2CC(C)CC(C)C2)c2ccc3c(c2)OCO3)c(OC)c1 (single isomer, unassigned; (-)) [Compound 35] | – | – | 91 | < 1 | –
COc1ccc(C(CC(=O)N2CCCC(C)C2)c2c(O)cc(OC)cc2OC)cc1 (stereo not drawn) [Compound 60] | 1 to 10 | 1 to 10 | 91.7 | 1 to 10 | –
